Experimental data from the supplement of paper PMC4862054.

What was measured:
Details in all cases: incubation time: 72 h
BT-549 [1] = assay: normalised viability (% of control), CellTiter-Blue; higher = more viable cells (100 = DMSO, 0 = benzethonium chloride kill control)
Description: (§1)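 DSRT, CellTiter-Blue viability, 72 h incubation. Signal is normalised to DMSO and benzethonium chloride controls. Value is the normalised response at dose 1.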

CAL-148 [2] = assay: as above
Description: as §1

HCC1599 [3] = assay: as above
Description: as §1

MDA-MB-436 [4] = assay: as above
Description: as §1

CAL-51 [5] = assay: as above
Description: as §1

BT-474 [6] = assay: as above
Description: as §1

HCC1937 [7] = assay: as above
Description: as §1

HDQ-P1 [8] = assay: as above
Description: as §1

MDA-MB-468 [9] = assay: as above
Description: as §1

MDA-MB-453 [10] = assay: as above
Description: as §1

SK-BR-3 [11] = assay: as above
Description: as §1

CAL-120 [12] = assay: as above
Description: as §1

MDA-MB-231 [13] = assay: as above
Description: as §1

Hs578T [14] = assay: as above
Description: as §1

HCC1143 [15] = assay: as above
Description: as §1

MFM-223 [16] = assay: as above
Description: as §1

DU-4475 [17] = assay: as above
Description: as §1

CAL-85-1 [18] = assay: as above
Description: as §1

BT-549 [19] = assay: normalised response (% of control), CellTiter-Glo; higher = more viable cells (100 = DMSO, 0 = benzethonium chloride kill control)
Summary of the method: (§2)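 Every value is a normalised signal taken at one concentration of a dilution series. Compound was placed in 384-well plates at 5 concentrations in 10-fold steps over a compound-specific 10,000-fold range, and 20 µl of breast cancer cell suspension was seeded onto it. After 72 h, CellTox Green fluorescence (485/520 nm) was measured first and CellTiter-Glo luminescence second, following 10 min at room temperature. Each plate was scaled to 0.1 % DMSO (100) and a positive kill control (0).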

CAL-148 [20] = assay: as above
Summary of the method: as §2

HCC1599 [21] = assay: as above
Summary of the method: as §2

MDA-MB-436 [22] = assay: as above
Summary of the method: as §2

CAL-51 [23] = assay: as above
Summary of the method: as §2

BT-474 [24] = assay: as above
Summary of the method: as §2

HCC1937 [25] = assay: as above
Summary of the method: as §2

HDQ-P1 [26] = assay: as above
Summary of the method: as §2

MDA-MB-468 [27] = assay: as above
Summary of the method: as §2

MDA-MB-453 [28] = assay: as above
Summary of the method: as §2

SK-BR-3 [29] = assay: as above
Summary of the method: as §2

CAL-120 [30] = assay: as above
Summary of the method: as §2

MCF-10A = assay: as above
Summary of the method: as §2

MDA-MB-231 [31] = assay: as above
Summary of the method: as §2

Hs578T [32] = assay: as above
Summary of the method: as §2

HCC1143 [33] = assay: as above
Summary of the method: as §2

MFM-223 [34] = assay: as above
Summary of the method: as §2

DU-4475 [35] = assay: as above
Summary of the method: as §2

CAL-85-1 [36] = assay: as above
Summary of the method: as §2

Compound	normalised viability (BT-549 [1]) [%]	normalised viability (CAL-148 [2]) [%]	normalised viability (HCC1599 [3]) [%]	normalised viability (MDA-MB-436 [4]) [%]	normalised viability (CAL-51 [5]) [%]	normalised viability (BT-474 [6]) [%]	normalised viability (HCC1937 [7]) [%]	normalised viability (HDQ-P1 [8]) [%]	normalised viability (MDA-MB-468 [9]) [%]	normalised viability (MDA-MB-453 [10]) [%]	normalised viability (SK-BR-3 [11]) [%]	normalised viability (CAL-120 [12]) [%]	normalised viability (MDA-MB-231 [13]) [%]	normalised viability (Hs578T [14]) [%]	normalised viability (HCC1143 [15]) [%]	normalised viability (MFM-223 [16]) [%]	normalised viability (DU-4475 [17]) [%]	normalised viability (CAL-85-1 [18]) [%]	normalised response (BT-549 [19]) [%]	normalised response (CAL-148 [20]) [%]	normalised response (HCC1599 [21]) [%]	normalised response (MDA-MB-436 [22]) [%]	normalised response (CAL-51 [23]) [%]	normalised response (BT-474 [24]) [%]	normalised response (HCC1937 [25]) [%]	normalised response (HDQ-P1 [26]) [%]	normalised response (MDA-MB-468 [27]) [%]	normalised response (MDA-MB-453 [28]) [%]	normalised response (SK-BR-3 [29]) [%]	normalised response (CAL-120 [30]) [%]	normalised response (MCF-10A) [%]	normalised response (MDA-MB-231 [31]) [%]	normalised response (Hs578T [32]) [%]	normalised response (HCC1143 [33]) [%]	normalised response (MFM-223 [34]) [%]	normalised response (DU-4475 [35]) [%]	normalised response (CAL-85-1 [36]) [%]
Nc1nc(Cl)nc2c1ncn2[C@H]1C[C@H](O)[C@@H](CO)O1 [Cladribine] (0.1 nM)	85.4	117	88.7	107	112	75.1	86.8	109	98.4	112	95.5	98.3	74.9	108	91.8	89.3	99.2	85.4	109	97.7	91.3	148	114	99.6	101	96.3	101	105	100	94.3	106	102	105	105	106	105	99.8
C=CCNC1=C2C[C@@H](C)C[C@H](OC)[C@H](O)[C@@H](C)/C=C(\C)[C@H](OC(N)=O)[C@@H](OC)/C=C\C=C(/C)C(=O)NC(=CC1=O)C2=O [Tanespimycin] (1 nM)	113	115	94.7	110	115	97.3	86.4	105	103	108	93	77.1	98.2	101	87.4	90.8	118	92.6	105	92.6	102	86.8	104	91.9	94.7	99.4	107	104	96.8	92.5	99.1	98.9	104	95.8	94	99	107
Cc1ccc(F)c(NC(=O)Nc2ccc(-c3cccc4[nH]nc(N)c34)cc2)c1 [Linifanib] (0.1 nM)	109	117	110	149	101	116	92.4	115	130	112	107	95.4	100	99.3	116	103	110	94.7	97	112	115	107	105	107	102	102	102	122	112	101	105	102	100	100	105	105	98.8
C[C@]1(c2nc3c(C(N)=O)cccc3[nH]2)CCCN1 [Veliparib] (1 nM)	112	101	83.5	93.7	112	89.8	77.1	75.1	97.7	93.3	96.9	68.6	94.3	94.8	79.1	94.1	99	78.4	104	103	96.4	91.4	92.2	107	96.8	101	111	109	102	97.3	97	102	101	101	101	106	111
CC[C@]1(O)C[C@@H]2CN(CCc3c([nH]c4ccccc34)[C@@](C(=O)OC)(c3cc4c(cc3OC)N(C)[C@H]3[C@@](O)(C(=O)OC)[C@H](OC(C)=O)[C@]5(CC)C=CCN6CC[C@]43[C@@H]65)C2)C1 [Vinblastine] (0.1 nM)	96.6	92.5	90.7	103	114	87.9	97.1	102	98.8	98.5	85.8	82.1	83.1	103	78.6	90	104	85.8	102	96.6	106	95.8	103	96.2	93.9	99.4	98.8	103	100	95.9	101	94.9	99.5	99	93.1	101	97.4
N#CC[C@H](C1CCCC1)n1cc(-c2ncnc3[nH]ccc23)cn1 [Ruxolitinib] (1 nM)	89.9	94.5	101	96.9	89.4	98.2	102	85.7	96.6	101	101	106	82.5	102	101	98.8	104	114	102	92.8	93.5	86.7	120	96.8	92.8	93.5	101	94.4	83.5	93.8	82	102	95.8	93.1	90.1	91.9	101
S=c1[nH]cnc2nc[nH]c12 [Mercaptopurine] (1 nM)	107	116	97.3	80.8	104	105	93.6	106	98.7	105	104	96.6	103	130	97.6	95.9	101	84	108	91.3	98.9	97.2	122	90.2	99.8	108	90.8	109	95.7	99.5	95.3	98.2	103	97.8	97.3	92.4	96.9
COc1cccc2cc(-c3nc([C@H]4CC[C@H](C(=O)O)CC4)n4ncnc(N)c34)[nH]c12 [OSI-027] (1 nM)	93.9	96.1	110	93.8	90.3	85.3	88.9	76.9	90.7	88.8	86.9	96.8	83.6	118	105	95.9	87.8	100	95.5	98.7	101	86.8	88	95.8	97.1	96.3	90.1	95.4	91.1	102	91.4	93.9	97.9	92.8	90.5	91.7	101
